The record followed here is patent US7928063B2, “Analogs of human growth hormone-releasing hormone, their preparation and use” (Instytut Farmaceutyczny, priority 2001, dated 2011).

This series deals with trypsin. Description: Trypsin digestion test (enzymatic resistance, HPLC). Particulars: for Resistance to trypsin digestion (in words): after 30 minutes; for remaining at 0.5 h, 0.4 mg/ml / remaining at 1 h, 0.4 mg/ml: isolated enzyme trypsin. It counts as in vitro ADME. The method, then:
The compounds prepared were also tested for enzymatic resistance in the trypsin digestion test. […] Subsequently, a trypsin solution was added (100 μl; 0.02 mg/ml; Serva, 36 U/mg). […] An aliquot (500 μl) was withdrawn and diluted with 0.5 M acetic acid (1 ml), then lyophilized. The material obtained was analyzed by HPLC, using a Knauer system with an Eurospher 100 C18 (4.6×250 mm, 5 micron) column. The following solvent systems were used: A, 0.1% TFA in water; […]

[1] abbreviates: trypsin, pH 8.5, 37° C., digestion time 30 min., read-out: % Unchanged compound.
The mark [2] stands for this setting: trypsin, pH 8.5, 37° C., digestion time 60 min., read-out: % Unchanged compound.

Like-named read-outs stand apart in the source and are kept apart here. Square brackets hold non-standard residues; d marks the D form. Peptide text beside a SMILES is read from it. * marks the point of attachment. Desaminotyrosyl = O=C(CCc1ccc(O)cc1)*; hArg = N=C(N)NCCCC[C@H](N)C(=O)O; Agb = N=C(N)NCC[C@H](N)C(=O)O; Agp = N=C(N)NC[C@H](N)C(=O)O; Nle = CCCC[C@H](N)C(=O)O; Orn = NCCC[C@H](N)C(=O)O

`CCCC[C@H](NC(=O)[C@@H](NC(=O)[C@H](CC(=O)O)NC(=O)[C@H](CCC(N)=O)NC(=O)[C@H](CC(C)C)NC(=O)[C@H](CC(C)C)NC(=O)[C@H](CCCN)NC(=O)[C@H](CCCCNC(=N)N)NC(=O)[C@H](C)NC(=O)[C@H](CO)NC(=O)[C@H](CC(C)C)NC(=O)[C@H](CCC(N)=O)NC(=O)[C@H](C)NC(=O)[C@H](CC(C)C)NC(=O)[C@@H](NC(=O)[C@H](CCCN)NC(=O)[C@H](CCCCNC(=N)N)NC(=O)[C@H](Cc1ccc(O)cc1)NC(=O)[C@H](CO)NC(=O)[C@H](CC(N)=O)NC(=O)[C@@H](NC(=O)[C@H](Cc1ccccc1)NC(=O)[C@@H](NC(=O)[C@H](C)NC(=O)[C@H](CC(=O)O)NC(=O)[C@H](C)NC(=O)CCc1ccc(O)cc1)[C@@H](C)CC)[C@@H](C)O)C(C)C)[C@@H](C)CC)C(=O)N[C@@H](CC(=O)O)C(=O)N[C@@H](CCCCNC(=N)N)C(N)=O` [Compound 2, Dat-Ala-Asp-Ala-Ile-Phe-Thr-Asn-Ser-Tyr^10-hArg-Orn-Val-Leu-Ala-Gln-Leu-Ser-Ala-hArg^20-Orn-Leu-Leu-Gln-Asp-Ile-Nle-Asp-hArg^29-NH2] (Desaminotyrosyl-ADAIFTNSY[hArg][Orn]VLAQLSA[hArg][Orn]LLQDI[Nle]D[hArg]-NH2): the “Resistance to trypsin digestion (in words)” value was “unchanged”. Further, the remaining at 0.5 h, 0.4 mg/ml under setting [1] is above 99%. The remaining at 1 h, 0.4 mg/ml under setting [2] was above 99%.
In the case of `CCCC[C@H](NC(=O)[C@@H](NC(=O)[C@H](CC(=O)O)NC(=O)[C@H](CCC(N)=O)NC(=O)[C@H](CC(C)C)NC(=O)[C@H](CC(C)C)NC(=O)[C@H](CCNC(=N)N)NC(=O)[C@H](CCNC(=N)N)NC(=O)[C@H](C)NC(=O)[C@H](CO)NC(=O)[C@H](CC(C)C)NC(=O)[C@H](CCC(N)=O)NC(=O)[C@H](C)NC(=O)[C@H](CC(C)C)NC(=O)[C@@H](NC(=O)[C@H](CCNC(=N)N)NC(=O)[C@H](CCNC(=N)N)NC(=O)[C@H](Cc1ccc(O)cc1)NC(=O)[C@H](CO)NC(=O)[C@H](CC(N)=O)NC(=O)[C@@H](NC(=O)[C@H](Cc1ccccc1)NC(=O)[C@@H](NC(=O)[C@H](C)NC(=O)[C@H](CC(=O)O)NC(=O)[C@H](C)NC(=O)CCc1ccc(O)cc1)[C@@H](C)CC)[C@@H](C)O)C(C)C)[C@@H](C)CC)C(=O)N[C@@H](CC(=O)O)C(=O)N[C@@H](CCNC(=N)N)C(N)=O` [Compound 3, Dat-Ala-Asp-Ala-Ile-Phe-Thr-Asn-Ser-Tyr^10-Gab-Gab-Val-Leu-Ala-Gln-Leu-Ser-Ala-Gab-Gab-Leu-Leu-Gln-Asp-Ile-Nle-Asp-Gab-NH2] (Desaminotyrosyl-ADAIFTNSY[Agb][Agb]VLAQLSA[Agb][Agb]LLQDI[Nle]D[Agb]-NH2), under “pH 8.5”, the remaining at 0.5 h, 0.4 mg/ml turned out to be 86% and the remaining at 1 h, 0.4 mg/ml is 72%.
On to `CCCC[C@H](NC(=O)[C@@H](NC(=O)[C@H](CC(=O)O)NC(=O)[C@H](CCC(N)=O)NC(=O)[C@H](CC(C)C)NC(=O)[C@H](CC(C)C)NC(=O)[C@H](CCNC(=N)N)NC(=O)[C@H](CCNC(=N)N)NC(=O)[C@H](C)NC(=O)[C@H](CO)NC(=O)[C@H](CC(C)C)NC(=O)[C@H](CCC(N)=O)NC(=O)[C@H](C)NC(=O)[C@H](CC(C)C)NC(=O)[C@@H](NC(=O)[C@H](CCNC(=N)N)NC(=O)[C@H](CCCCNC(=N)N)NC(=O)[C@H](Cc1ccc(O)cc1)NC(=O)[C@H](CO)NC(=O)[C@H](CC(N)=O)NC(=O)[C@@H](NC(=O)[C@H](Cc1ccccc1)NC(=O)[C@@H](NC(=O)[C@H](C)NC(=O)[C@H](CC(=O)O)NC(=O)[C@H](C)NC(=O)CCc1ccc(O)cc1)[C@@H](C)CC)[C@@H](C)O)C(C)C)[C@@H](C)CC)C(=O)N[C@@H](CC(=O)O)C(=O)N[C@@H](CCNC(=N)N)C(N)=O` [Compound 4, Dat-Ala-Asp-Ala-Ile-Phe-Thr-Asn-Ser-Tyr^10-hArg-Gab-Val-Leu-Ala-Gln-Leu-Ser-Ala-Gab-Gab-Leu-Leu-Gln-Asp-Ile-Nle-Asp-Gab-NH2] (Desaminotyrosyl-ADAIFTNSY[hArg][Agb]VLAQLSA[Agb][Agb]LLQDI[Nle]D[Agb]-NH2), for which, for the setting “pH 8.5”, the remaining at 0.5 h, 0.4 mg/ml was 82% and the remaining at 1 h, 0.4 mg/ml came out at 67%.
Take `CCCC[C@H](NC(=O)[C@@H](NC(=O)[C@H](CC(=O)O)NC(=O)[C@H](CCC(N)=O)NC(=O)[C@H](CC(C)C)NC(=O)[C@H](CC(C)C)NC(=O)[C@H](CCCCNC(=N)N)NC(=O)[C@H](CCCCNC(=N)N)NC(=O)[C@H](C)NC(=O)[C@H](CO)NC(=O)[C@H](CC(C)C)NC(=O)[C@H](CCC(N)=O)NC(=O)[C@H](C)NC(=O)[C@H](CC(C)C)NC(=O)[C@@H](NC(=O)[C@H](CCCCNC(=N)N)NC(=O)[C@H](CCNC(=N)N)NC(=O)[C@H](Cc1ccc(O)cc1)NC(=O)[C@H](CO)NC(=O)[C@H](CC(N)=O)NC(=O)[C@@H](NC(=O)[C@H](Cc1ccccc1)NC(=O)[C@@H](NC(=O)[C@H](C)NC(=O)[C@H](CC(=O)O)NC(=O)[C@H](C)NC(=O)CCc1ccc(O)cc1)[C@@H](C)CC)[C@@H](C)O)C(C)C)[C@@H](C)CC)C(=O)N[C@@H](CC(=O)O)C(=O)N[C@H](CCCNC(=N)N)C(N)=O` [Compound 5, Dat-Ala-Asp-Ala-Ile-Phe-Thr-Asn-Ser-Tyr^10-Gab-hArg-Val-Leu-Ala-Gln-Leu-Ser-Ala-hArg-hArg-Leu-Leu-Gln-Asp-Ile-Nle-Asp-D-Arg-NH2] (Desaminotyrosyl-ADAIFTNSY[Agb][hArg]VLAQLSA[hArg][hArg]LLQDI[Nle]D[dR]-NH2): the remaining at 0.5 h, 0.4 mg/ml under setting [1] came to 80%. Also, under setting [2], the remaining at 1 h, 0.4 mg/ml was determined as 51%.
For the molecule `CCCC[C@H](NC(=O)[C@@H](NC(=O)[C@H](CC(=O)O)NC(=O)[C@H](CCC(N)=O)NC(=O)[C@H](CC(C)C)NC(=O)[C@H](CC(C)C)NC(=O)[C@H](CCCCNC(=N)N)NC(=O)[C@H](CCCCNC(=N)N)NC(=O)[C@H](C)NC(=O)[C@H](CO)NC(=O)[C@H](CC(C)C)NC(=O)[C@H](CCC(N)=O)NC(=O)[C@H](C)NC(=O)[C@H](CC(C)C)NC(=O)[C@@H](NC(=O)[C@H](CCNC(=N)N)NC(=O)[C@H](CCCCNC(=N)N)NC(=O)[C@H](Cc1ccc(O)cc1)NC(=O)[C@H](CO)NC(=O)[C@H](CC(N)=O)NC(=O)[C@@H](NC(=O)[C@H](Cc1ccccc1)NC(=O)[C@@H](NC(=O)[C@H](C)NC(=O)[C@H](CC(=O)O)NC(=O)[C@H](C)NC(=O)CCc1ccc(O)cc1)[C@@H](C)CC)[C@@H](C)O)C(C)C)[C@@H](C)CC)C(=O)N[C@@H](CC(=O)O)C(=O)N[C@H](CCCNC(=N)N)C(N)=O` [Compound 6, Dat-Ala-Asp-Ala-Ile-Phe-Thr-Asn-Ser-Tyr^10-hArg-Gab-Val-Leu-Ala-Gln-Leu-Ser-Ala-hArg-hArg-Leu-Leu-Gln-Asp-Ile-Nle-Asp-D-Arg-NH2] (Desaminotyrosyl-ADAIFTNSY[hArg][Agb]VLAQLSA[hArg][hArg]LLQDI[Nle]D[dR]-NH2), where the note is “pH 8.5”, the remaining at 0.5 h, 0.4 mg/ml was found to be 85% and the remaining at 1 h, 0.4 mg/ml came out at 73%.
Taken in the same sequence, the figures for `CCCC[C@H](NC(=O)[C@@H](NC(=O)[C@H](CC(=O)O)NC(=O)[C@H](CCC(N)=O)NC(=O)[C@H](CC(C)C)NC(=O)[C@H](CC(C)C)NC(=O)[C@H](CNC(=N)N)NC(=O)[C@H](CNC(=N)N)NC(=O)[C@H](C)NC(=O)[C@H](CO)NC(=O)[C@H](CC(C)C)NC(=O)[C@H](CCC(N)=O)NC(=O)[C@H](C)NC(=O)[C@H](CC(C)C)NC(=O)[C@@H](NC(=O)[C@H](CNC(=N)N)NC(=O)[C@H](CNC(=N)N)NC(=O)[C@H](Cc1ccc(O)cc1)NC(=O)[C@H](CO)NC(=O)[C@H](CC(N)=O)NC(=O)[C@@H](NC(=O)[C@H](Cc1ccccc1)NC(=O)[C@@H](NC(=O)[C@H](C)NC(=O)[C@H](CC(=O)O)NC(=O)[C@H](C)NC(=O)CCc1ccc(O)cc1)[C@@H](C)CC)[C@@H](C)O)C(C)C)[C@@H](C)CC)C(=O)N[C@@H](CC(=O)O)C(=O)N[C@@H](CNC(=N)N)C(N)=O` [Compound 7, Dat-Ala-Asp-Ala-Ile-Phe-Thr-Asn-Ser-Tyr^10-Gap-Gap-Val-Leu-Ala-Gln-Leu-Ser-Ala-Gap-Gap-Leu-Leu-Gln-Asp-Ile-Nle-Asp-Gap-NH2] (Desaminotyrosyl-ADAIFTNSY[Agp][Agp]VLAQLSA[Agp][Agp]LLQDI[Nle]D[Agp]-NH2) were 75% and 68%.
`CCCC[C@H](NC(=O)[C@@H](NC(=O)[C@H](CC(=O)O)NC(=O)[C@H](CCC(N)=O)NC(=O)[C@H](CC(C)C)NC(=O)[C@H](CC(C)C)NC(=O)[C@H](CNC(=N)N)NC(=O)[C@H](CCCCNC(=N)N)NC(=O)[C@H](C)NC(=O)[C@H](CO)NC(=O)[C@H](CC(C)C)NC(=O)[C@H](CCC(N)=O)NC(=O)[C@H](C)NC(=O)[C@H](CC(C)C)NC(=O)[C@@H](NC(=O)[C@H](CNC(=N)N)NC(=O)[C@H](CNC(=N)N)NC(=O)[C@H](Cc1ccc(O)cc1)NC(=O)[C@H](CO)NC(=O)[C@H](CC(N)=O)NC(=O)[C@@H](NC(=O)[C@H](Cc1ccccc1)NC(=O)[C@@H](NC(=O)[C@H](C)NC(=O)[C@H](CC(=O)O)NC(=O)[C@H](C)NC(=O)CCc1ccc(O)cc1)[C@@H](C)CC)[C@@H](C)O)C(C)C)[C@@H](C)CC)C(=O)N[C@@H](CC(=O)O)C(=O)N[C@@H](CNC(=N)N)C(N)=O` [Compound 8, Dat-Ala-Asp-Ala-Ile-Phe-Thr-Asn-Ser-Tyr^10-Gap-Gap-Val-Leu-Ala-Gln-Leu-Ser-Ala-hArg-Gap-Leu-Leu-Gln-Asp-Ile-Nle-Asp-Gap-NH2] (Desaminotyrosyl-ADAIFTNSY[Agp][Agp]VLAQLSA[hArg][Agp]LLQDI[Nle]D[Agp]-NH2): the “Resistance to trypsin digestion (in words)” value was “unchanged”. Also, the remaining at 0.5 h, 0.4 mg/ml under setting [1] was above 99%. Further, the remaining at 1 h, 0.4 mg/ml under setting [2] is above 99%.
